Source: US20240109942A1, “CHOLECYSTOKININ (CCK) SECRETION-PROMOTING PEPTIDE TARGETING CALCIUM-SENSING RECEPTOR, AND PREPARATION METHOD AND USE THEREOF” (University of Shanghai for Science and Technology, priority 2022, published 2024)
Where no end group is shown, it is not given here.

Test system: STC-1 cell
Assay: MTT cell proliferation and cytotoxicity assay on STC-1 cell
Assay type: cell-based
Conditions: absorbance 570 nm, peptide 0, 1, 2, 4 mmol/L, FIG. 2
Protocol: An STC-1 cell was cultured in a dulbecco's modified eagle medium (DMEM) containing 10% fetal bovine serum (FBS), 1% non-essential amino acids (NEAA), 100 U/mL penicillin and 0.1 mg/mL streptomycin. The cell was incubated in a cell incubator containing 5% CO2 at 37° C. and was subcultured by means of trypsin digestion when reaching 80%-90% density.
The effect of the active peptide of QGDVVALPA on the viability of the STC-1 cell was tested and evaluated by means of 3-(4,5-dimethylthiazol-2-yl)-2,5-diphenyltetrazolium bromide [3-(4,5-di methyl-2-thiazolyl)-2,5-di phenyl]-2H-tetrazolium bromide, methyl thiazolyl tetrazolium (MTT)) cell proliferation and cytotoxicity. MTT was added into the STC-1 cell treated in a 96-well plate, and a metabolically active cell cleaved yellow tetrazolium salt MTT into a purple formazan crystal. Formazan formed was dissolved, absorbance was measured with a microplate reader at a measurement wavelength of 570 nm, and results were expressed as a percentage of a control group.

Sequence: QGDVVALPA [QGDVVALPA, Gln-Gly-Asp-Val-Val-Ala-Leu-Pro-Ala]
- viability of the STC-1 cell compared with the control group: not changed
